{"source": "patent US4859664A", "about": "“Derivatives of 2,3,4,5,6,7-hexahydro-2,7-methano-1,5-benzoxazonines and -1,4-benzoxazonines, processes for their production and their use as pharmaceuticals” (priority 1986, dated 1989)", "key": {"[1]": {"format": "in vivo, male NMRI mice", "experimental": "(§1) […]. They were given a standard feed and water ad libitum up to the commencement of the experiments.\n(§2) The test compounds were administered in a volume of 10 ml./kg./body weight per mouse. As carrier, there was used physiological sodium chloride solution or a suspension of 0.5% tragacanth in physiological sodium chloride solution.\n(§3) The experimental results are given as average values with a mean error of the average value (x±S.E.M.). The ED50 values were calculated according to Litchfield and Wilcoxon (J. Pharmacol. Exp. Ther., 96, 99/1949). The compounds were thereby tested in 4 dosages (p≤0.5).\n(§4) For the significance calculation, there was used Student's t test (see Angewandte Statistik, pub. Stringer Verlag, Berlin, Heidelberg, 242/1983), as well as the range sum test of Mann and Withney (Ann. Math. stat., 50, 1818/1947).\n(§5) 1.1. In the acetic acid writhing test (see R. Koster et al., Fed. proc., 18, 412/1954), the typical stretching movements referred to as \"writhing\", were produced by the intraperitoneal administration of a 0.6% acetic acid solution. 30 minutes previously, the substance to be tested was administered subcutaneously (s.c.) or orally ([…].) to the animals. 3 minutes after administration of the acetic acid solution, the total number of stretching movements in a period of time of 10 minutes was ascertained. From the decrease of the stretching reactions due to the action of the test compound in comparison with non-pretreated control groups, there was determined the percentage inhibition action."}, "[2]": {"assay": "influencing of hexobarbital narcosis", "format": "in vivo, male NMRI mice", "experimental": "as §1, §2, §3\n4. Influencing of hexobarbital narcosis.\nThe test compounds were administered subcutaneously to 5 animals per dosage group. After 30 minutes, 100 mg./kg. hexobarbital sodium was administered intraperitoneally. 2 to 3 minutes after this injection, the animals allowed themselves to be laid on their backs. For each animal, there was measured the time in minutes from the commencement of the back position up to the time when the animals themselves twice successively again assumed the abdominal position."}, "[3]": {"assay": "influencing of the amphetamine group toxicity", "format": "in vivo, male NMRI mice", "conditions": "amphetamine control group, 15 mg. s.c.", "experimental": "as §1, §2\n3. Influencing of the amphetamine group toxicity.\nThere was investigated the influence of the test compounds on the mortality of amphetamine-treated, aggregated mice. The dosaging of d-amphetamine was 15 mg./kg., which should permit the recognition not only of a synergism but also of an antagonism towards a sympathomimetic compound. Carrying out the experiment:\n30 minutes after the subcutaneous administration of the test substance, the animals received subcutaneously 15 mg./kg. of d-amphetamine sulphate. The number of dead animals was recorded after 2, 4 and 7 hours. For the maintenance of the group size, the dead animals were replaced by untreated animals (6 animals/dosage group)."}, "[4]": {"assay": "tonus reduction on striated musculature", "format": "in vivo, male NMRI mice", "conditions": "5 mg./kg. s.c.", "experimental": "(§6) For the pharmacological investigations described in the following, there were used male NMRI mice with a weight of from 15 to 30 g. The animals were kept under usual laboratory conditions, randomised and subjected to a light-dark change with a 12 hour rhythm. They were given a standard feed and water ad libitum up to the commencement of the experiments.\nas §2\n6. Tonus reduction on striated musculature.\nThe test used is described by J. P. Chambon et al. (Arzneimittelforschung (Drug Research), 35 (II), (10), 1572/1985).\n5 animals per dosage group were placed with their front paws on a horizontal metal rod (diameter 3 mm., length 20 cm.) which was fixed 30 cm. above a laboratory bench. Mice with normal muscle tonus climbed within 5 seconds on to the rod with at least one rear paw.\n40, 80 and 120 minutes after the subcutaneous administration of the test compound, the animals were again tested for this ability and the number of incapable animals was recorded."}, "[5]": {"assay": "testing for ataxia (rotating rod test)", "format": "in vivo, male NMRI mice", "experimental": "as §6, §2\nThere was used the rotating rod test (see F. Gross et al., Schweiz. Med. Wschr., 85, 305/1955).\n5 animals per dosage group were trained to keep themselves on a horizontally rotating rod made of synthetic resin (16 rpm). 40, 80 and 120 minutes after the subcutaneous administration of the test compounds, the animals were again tested. From the number of animals which fell off prematurely, there was determined the disturbance of the movement coordination."}, "[6]": {"format": "in vivo, male NMRI mice", "experimental": "as §1, §2\n2. Development of dependency.\nWithdrawal jumps of the mouse (see J. K. Saelens et al., Arch. Int. Pharmacodyn. Ther., 190, 213/1971).\nMice which were dependent upon morphine or other opiates react, when treated with morphine antagonists, with a flight reaction (see F. Huidobro and C. Maggiolo, Arch. Int. Pharmacodyn. Ther., 158, 97/1965); E. L. Way et al., Science, 162, 1290/1968). This flight reaction manifests itself in very vigorous jumping reactions which continue for about 10 minutes. From the number of reacting animals and especially from the jump frequency per animal, there can be deduced the strength of the withdrawal symptoms and thus the degree of dependency upon the test compound. Carrying out of the test:\nThe test and standard compounds were administered subcutaneously according to the scheme shown in the following Table III in increasing dosages over the course of 2 days.\nFor the provocation of the withdrawal jumps, the animals received intraperitoneally, 2 hours after the last compound administration, 30 mg./kg. naloxone hydrochloride.\nImmediately after the administration of the naloxone, the animals were placed individually in a 5 liter glass beaker. Subsequently, the number of jump movements was recorded during the course of 10 minutes. For evaluation, the number of animals reacting the withdrawal jumps, as well as the average number of jumps per animal, was used.\nThe animals of the naloxone control group were, up to the administration of naloxone, treated with a 0.9% aqueous solution of sodium chloride (6 animals/dosage group).", "remark": "listed apart in the source"}, "[7]": {"format": "in vivo, male NMRI mice", "conditions": "given without sign", "experimental": "They were given a standard feed and water ad libitum up to the commencement of the experiments.\nas §2, §3, §4, §5\nNaloxone-antagonistic action in the writhing test.\n20 Minutes before the subcutaneous administration of the test compounds, the animals were given 20 mg./kg. naloxone hydrochloride subcutaneously. The further carrying out of the experiments was as described above."}}, "note": "Structures can show the parent of a compound that is named as a salt. Where two headings read alike, the source gives them in different places."}
{"smiles": "CC1CCCC2C3CNCCC12Oc1ccccc13", "note": "(stereo not drawn) [Example 12, B/C-trans-1,2,3,4,4a,9a-hexahydro-4-methyl-4a,9-(3-azabutano)-xanthene]", "values": [{"measurement": "inhibiting action in writhing test", "setting": "[1]; 25 mg./kg. s.c.", "result": 24, "unit": "%"}, {"measurement": "inhibiting action in writhing test", "setting": "[1]; 50 mg./kg. s.c.", "result": 79, "unit": "%"}]}
{"smiles": "CC(N)Cc1ccccc1.O=S(=O)(O)O", "note": "(stereo not shown) [amphetamine sulphate, reference compound]", "values": [{"measurement": "change with regard to hexabarbital sodium", "setting": "[2]; 1.0 mg/kg sc", "result": -43.2, "unit": "min"}, {"measurement": "period of narcosis ± SEM", "setting": "[2]; 1.0 mg/kg sc, hexobarbital sodium 100 mg./kg. i.p.", "result": "49.2 ± 14.6", "unit": "min"}]}
{"smiles": "CC(N)Cc1ccccc1", "note": "(stereo not shown) [amphetamine, reference compound]", "values": [{"measurement": "% of deceased animals after 2 hrs.", "setting": "[3]", "result": 0, "unit": "%"}, {"measurement": "% of deceased animals after 4 hrs.", "setting": "[3]", "result": 33, "unit": "%"}, {"measurement": "% of deceased animals after 7 hrs.", "setting": "[3]", "result": 0, "unit": "%"}, {"measurement": "% of deceased animals, total", "setting": "[3]", "result": 33.3, "unit": "%"}]}
{"smiles": "COc1ccc2c3c1O[C@H]1[C@@H](O)C=C[C@H]4[C@@H](C2)N(C)CC[C@@]341", "note": "[codeine phosphate, reference compound]", "values": [{"measurement": "change with regard to hexabarbital sodium", "setting": "[2]; 50 mg/kg sc", "result": "+51.2 min."}, {"measurement": "period of narcosis ± SEM", "setting": "[2]; 50 mg/kg sc, hexobarbital sodium 100 mg./kg. i.p.", "result": "143.6 ± 10.5", "unit": "min"}]}
{"smiles": "CN1C(=O)CN=C(c2ccccc2)c2cc(Cl)ccc21", "note": "[diazepam, reference compound]", "values": [{"measurement": "relaxing action", "setting": "[4]", "result": 93, "unit": "%"}, {"measurement": "change of the maintenance time in % compared with the control group, after 40 min.", "setting": "[5]; 5 mg/kg s.c.", "result": -87, "unit": "%"}, {"measurement": "change of the maintenance time in % compared with the control group, after 80 min.", "setting": "[5]; 5 mg/kg s.c.", "result": -73, "unit": "%"}, {"measurement": "change of the maintenance time in % compared with the control group, after 120 min.", "setting": "[5]; 5 mg/kg s.c.", "result": -22, "unit": "%"}]}
{"smiles": "CN1C(=O)NC(=O)C(C)(C2=CCCCC2)C1=O", "note": "(stereo not shown) [hexobarbital, reference compound]", "values": [{"measurement": "period of narcosis ± SEM", "setting": "[2]; hexobarbital alone, 100 mg/kg ip", "result": "92.4 ± 17.1", "unit": "min"}]}
{"smiles": "CN1CC[C@]23c4c5ccc(O)c4O[C@H]2[C@@H](O)C=C[C@H]3[C@H]1C5.Cl", "note": "[morphine HCl, reference compound]", "values": [{"measurement": "% of reacting animals", "setting": "[6]; mouse, in vivo", "result": 100, "unit": "%"}]}
{"smiles": "CCC1(c2ccccc2)C(=O)NC(=O)NC1=O", "note": "[phenobarbital, reference compound]", "values": [{"measurement": "change of the maintenance time in % compared with the control group, after 40 min.", "setting": "[5]; 30 mg/kg s.c.", "result": -29, "unit": "%"}, {"measurement": "change of the maintenance time in % compared with the control group, after 80 min.", "setting": "[5]; 30 mg/kg s.c.", "result": -21, "unit": "%"}, {"measurement": "change of the maintenance time in % compared with the control group, after 120 min.", "setting": "[5]; 30 mg/kg s.c.", "result": -37, "unit": "%"}, {"measurement": "change of the maintenance time in % compared with the control group, after 40 min.", "setting": "[5]; 50 mg/kg s.c.", "result": -54, "unit": "%"}, {"measurement": "change of the maintenance time in % compared with the control group, after 80 min.", "setting": "[5]; 50 mg/kg s.c.", "result": -46, "unit": "%"}, {"measurement": "change of the maintenance time in % compared with the control group, after 120 min.", "setting": "[5]; 50 mg/kg s.c.", "result": -42, "unit": "%"}]}
{"smiles": "COc1cccc(C2(O)CCCCC2CN(C)C)c1", "note": "(stereo not shown) [tramadol HCl, reference compound]", "values": [{"measurement": "% of reacting animals", "setting": "[6]; s.c. increasing dosages over 2 days, naloxone i.p., 10 minutes", "result": 83.3, "unit": "%"}]}
{"smiles": "COc1cccc(C2(O)CCCCC2CN(C)C)c1", "note": "(stereo not shown) [tramadol, 2-[(dimethylamino)-methyl]-1-(3-methoxyphenyl)-cyclohexanol, reference compound]", "values": [{"measurement": "change in % (with vs without naloxone)", "setting": "[7]; 10 mg/kg s.c.", "result": 39.0, "unit": "%"}, {"measurement": "change in % (with vs without naloxone)", "setting": "[7]; 20 mg/kg s.c.", "result": 30.7, "unit": "%"}]}
